From EP4696306A1, “ADENOSINE TRIPHOSPHATE SECRETION INHIBITOR, HEPATIC STELLATE CELL ACTIVATION INHIBITOR, HEPATIC STELLATE CELL DEACTIVATOR, HEPATIC FIBROSIS THERAPEUTIC AGENT, NON-ALCOHOLIC STEATOHEPATITIS THERAPEUTIC AGENT, PSORIASIS THERAPEUTIC AGENT, AND USE OF COMPOUND FOR PRODUCING ADENOSINE TRIPHOSPHATE …” (KURUME UNIVERSITY, priority 2023, dated 2024)

Key:
[1] = tested on: imiquimod-induced psoriasis; test: Imiquimod-induced psoriasis model; assay type: in vivo, mice; details: for auricular thickening and psoriatic symptoms: Example 21, N = 2
Experimental: Experimental psoriatic symptoms were induced in a mouse auricle by imiquimod. Six-week-old male C57BL/6 mice (N = 5) were acclimated for one week. On Days 1 to 7, 62.5 mg of 5% imiquimod cream (Beselna Cream 5%) (3.125 mg in terms of the active ingredient, manufactured by Mochida Pharmaceutical Co. Ltd.) was applied to the right auricle of the mice for 7 consecutive days (IMQ group). Once daily after the imiquimod application, the imeglimin administration group (IMQ + IMG group) received oral administration, at 40 mg/kg, of 500-mg Twymeeg (trademark) tablets (manufactured by Sumitomo Pharma Co. Ltd.) dissolved in physiological saline. The control group received an equal volume of physiological saline. On Day 8, the mice were euthanized by cervical dislocation, and auricle thickness was measured using a dial thickness gauge (manufactured by Adachi Sogyo Co., Ltd.).
Each excised mouse auricle was fixed in 4% paraformaldehyde at 4°C overnight. After ethanol substitution, the auricle was embedded in paraffin, sectioned using a rotary microtome Leica RM2165 (thickness, […]), and subjected to HE staining or immunohistochemical staining. For the immunohistochemical staining, the sections were deparaffinized, washed in xylene, and rehydrated through graded alcohols. The sections were incubated in DAKO at 95°C for 30 minutes. The sections were blocked at room temperature for 60 minutes and then incubated at room temperature for 2 hours to allow reaction with a TGM1 anti-rabbit polyclonal antibody (catalog number 12912-3-AP, manufactured by Proteintech). The sample was washed and then allowed to react with a secondary antibody (Alexa 544-conjugated secondary antibody (goat anti-rabbit IgG) (manufactured by Molecular Probes)) at room temperature for 60 minutes. After allowing reaction with DAPI at room temperature for 10 minutes, the sections were mounted with Fluoromount and imaged using a fluorescence microscope (BZ-X710, manufactured by Keyence).
The dorsal hair of mice was shaved and depilated (Day 0). To each of the left auricle and the depilated back of each mouse, 62.5 mg of 5% imiquimod cream (Beselna Cream 5%) was applied once daily a total of seven times (Days 1 to 7) in accordance with Example 18, to induce imiquimod-induced psoriasis (IMQ group). In the IMQ + IMG group, mice received oral administration of imeglimin (40 mg/kg) once daily (Day 1 to 7) after the imiquimod application. […] Thickness of the auricle was measured, and the degrees of erythema, desquamation, and infiltration in the affected area were rated on Days 1, 3, 5, 7, and 8 according to the PASI scoring of the DermNET Dermatology Resource (none: 0, mild: 1, moderate: 2, severe: 3, and very severe: 4). The resulting values were used to calculate the PASI score.
Further, for an auricle excised on Day 8, immunohistochemical staining was performed in the same manner as in Example 18, and auricular sections were imaged using a fluorescence microscope (BZ-X710; manufactured by Keyence Corporation).
On Days 1, 2, 3, 5, and 6, 62.5 mg of 5% imiquimod cream (Beselna Cream 5%) was applied to auricles of wild-type mice (IMQ) or VNUT knockout mice (VNUT KO + IMQ) to induce psoriatic symptoms. […] For a negative control, only 20% glycerin solution was applied. In IMQ + 1% IMG and IMQ + 0.1% IMG, 20% glycerin solution supplemented with 1% (w/v) imeglimin and 0.1% (w/v) imeglimin, respectively, was applied immediately after the imiquimod application. Further, in IMQ + 1% Clo and IMQ + 0.1% Clo, 20% glycerin solution supplemented with 1% (w/v) clodronate and 0.1% (w/v) clodronate, respectively, was applied immediately after the imiquimod application.

[2] = tested on: LX-2 cells; test: ATP secretion from LX-2 cells; assay type: cell-based, human
Experimental: Cells of the immortalized human hepatic stellate cell line LX-2 (manufactured by Merck) was cultured in Dulbecco's modified Eagle's medium (DMEM, 4500 mg/l Glucose, D5796, manufactured by Sigma-Aldrich) supplemented with inactivated 2% fetal bovine serum (FBS), 10 IU/ml penicillin, and 10 IU/ml streptomycin in a T25 or T75 flask at 37°C in 5% CO2.
LX-2 cells (2 × 10^6 cells per well) were seeded in a collagen-coated 6-well culture dish containing Dulbecco's modified Eagle's medium (manufactured by Sigma-Aldrich) supplemented with 10 IU/ml penicillin, […] 2% fetal bovine serum, and cultured in 5% CO2 at 37°C. After 3 days, the LX-2 cells were washed twice and preincubated in Krebs-Ringer buffer (10 mM HEPES-Tris, pH 7.4, 128 mM NaCl, 1.9 mM KCl, 1.2 mM KH2PO4, 1.3 mM MgSO4, 26 mM NaHCO3, 2.4 mM CaCl2, 10 mM glucose, 0.2% (w/v) bovine serum albumin) with or without 10 µM clodronate. The LX-2 cells were then stimulated with Krebs-Ringer buffer supplemented with ionomycin (manufactured by Cayman) regardless of whether clodronate was present or not. For the stimulation, 1 mM EGTA (manufactured by Dojindo) or 10 µM serotonin (5-HT, manufactured by Sigma-Aldrich) was used. The ATP concentration in the culture supernatant was measured in the same manner as in Example 6.

[3] = tested on: THP-1 cells; test: LPS-stimulated ATP secretion in macrophages differentiated from THP-1 cells; assay type: cell-based, human; details: 10 µM; LPS 10 µg/ml 10 minutes; N = 10
Experimental: Human acute monocytic leukemia cells (THP-1 cells (ACTT)) were cultured in accordance with Reference D. THP-1 cells were cultured in RPMI1640 medium supplemented with 10% fetal bovine serum (FBS), 100 units/ml penicillin, and 100 µg/ml streptomycin at 37°C in 5% CO2 for 1 day. Further, THP-1 cells were cultured in RPMI1640 medium supplemented with 1 µg/ml Escherichia coli scrotype 055:B5 (manufactured by Sigma-Aldrich) and 1000 units/ml mouse IFN-γ (manufactured by R&D Systems) at 37°C in 5% CO2 for 1 day, to allow differentiation into macrophages.
The differentiated macrophages were cultured in RPMI1640 medium supplemented with 1 mg/ml Escherichia coli scrotype 055:B5 (manufactured by Sigma-Aldrich) and 1000 units/ml mouse IFN-γ (manufactured by R&D Systems) at 2.5 × 10^4 cells/well in a 24-well plate at 37°C in 5% CO2 for 4 days. The medium was replaced with HBSS (manufactured by Gibco) supplemented with imeglimin or clodronate), and then LPS (10 µg/ml) was added thereto, followed by further performing incubation for 10 minutes and then collection of 200 µl of the supernatant. The supernatant was immediately treated on a heat block at 95°C for 10 minutes, and ATP in the supernatant was quantified using an ATP assay kit - Luminescence (manufactured by Dojindo) (N = 10).

[4] = 1 g of imeglimin hydrochloride daily for one week; cited from earlier work

SMILES | auricular thickening and psoriatic symptoms ([1]; topical 20% glycerin solution with 0.1% (w/v) clodronate) | auricular thickening and psoriatic symptoms ([1]; topical 20% glycerin solution with 1% (w/v) clodronate) | ATP exocytosis induced by ionomycin ([2]; 10 µM clodronate, N = 6) | ATP secretion promoted by 5-HT ([2]; 10 µM serotonin, 10 µM clodronate, N = 6) | ATP secretion upon LPS stimulation [3] | epidermal desquamation and psoriatic symptoms of the auricle ([1]; Example 18, oral 40 mg/kg once daily, Days 1 to 7 (Twymeeg tablets dissolved in saline), N = 5) | auricle thickening induced by imiquimod ([1]; Example 18, oral 40 mg/kg once daily, Days 1 to 7, N = 5) | typical psoriatic symptoms (auricular thickness, desquamation, infiltration, PASI score), except erythema ([1]; Example 19, imeglimin 40 mg/kg orally once daily Day 1 to 7, N = 5) | effect compared with infliximab ([1]; Example 19, imeglimin 40 mg/kg orally versus infliximab 100 µg/mouse i.v.) | auricular thickening and psoriatic symptoms ([1]; topical 20% glycerin solution with 0.1% (w/v) imeglimin) | auricular thickening and psoriatic symptoms ([1]; topical 20% glycerin solution with 1% (w/v) imeglimin) | ATP secretion from the LX-2 cells ([2]; imeglimin, concentration not given, N = 8) | blood imeglimin concentration [4]
O=P(O)(O)C(Cl)(Cl)P(=O)(O)O [clodronate] | the degree of auricular thickening was improved | the degree of auricular thickening was improved | inhibited | strongly inhibited | strongly inhibited |  |  |  |  |  |  |  | 
C[C@H]1N=C(N(C)C)N=C(N)N1 [imeglimin] |  |  |  |  | strongly inhibited | eliminated epidermal desquamation and reduced the psoriatic symptoms | suppressed | reduced | almost equivalent, or imeglimin was more effective | no effect | the degree of auricular thickening was improved | inhibited ATP secretion | 9 µM
